Measurements published in US9522920B2, “Bromodomain inhibitors and uses thereof” (Constellation Pharmaceuticals, Inc., priority 2010, dated 2016).
Like-named read-outs stand apart in the source and are kept apart here.

What was measured:
[1] = test system: IL-6 secretion; experiment: Cell-based IL-6 quantification assay (ELISA, Mesoscale) in LPS-stimulated THP-1 cells; conditions: THP-1 cells, 16 h, read-out: IL6
Summary of the method: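 THP-1 cells stimulated with LPS at 4 μg/mL final and exposed to compounds for 16 h. Supernatant IL-6 measured by Mesoscale ELISA and normalized to CellTiter-Glo cell content. Percent inhibition derived from that ratio.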

[2] = test system: LPS-induced IL-6 production; experiment: In-vivo inhibition of LPS-induced IL-6 production; set-up: species or system Balb/C mice; conditions: for ED50: Mus musculus; for ED50 (mg/kg): Table 15, oral gavage 30 min prior to LPS, plasma IL-6 ELISA two hours after LPS challenge, 50% inhibition compared to vehicle
Description: Female Balb/C mice, 6 weeks old upon arrival at animal facility, and weighing 18-20 g/mouse were used for this assay. The mice are acclimated in animal facility for 5-7 days prior experiment initiation. Mice were randomly divided into experimental groups to include several doses of test article, and vehicle and dexamethasone controls. Mice were fasted from 12 hours prior to study initiation (dosing), but allowed free access to water. Mice were dosed following study group design by oral gavage 30 min prior to LPS stimulation. Dosing interval time was 1 min/mouse.
Two hours after LPS challenge animals were anesthetized by CO2 inhalation, and blood was sampled via cardiac puncture into EDTA coated tubes and placed on ice. Plasma was separated by centrifugation at 3000 g at 4° C. for 15 min. The separated plasma was divided into aliquots (50 ul/aliquot) and stored at −80° C. until plasma IL-6 ELISA and drug levels were analyzed.

[3] = target: T1, BRD4(BD1) (Homo sapiens, UniProt O60885); experiment: BRD4 AlphaLisa binding assay (Alphascreen)
T1 construct: His; made in house
Summary of the method: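 BRD4(BD1) (30 nM) incubated 20 min at room temperature with peptide (200 nM) and compound in 40 mM HEPES pH 7.0, 40 mM NaCl, 1 mM DTT, 0.01% BSA, 0.008% Brij-35, 1.2% DMSO.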

[4] = test system: MYC mRNA; experiment: cMyc RNA quantification assay (QuantiGene) in Raji cells; format: cell-based; conditions: 4 h
Summary of the method: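 MV4:11 or Raji cells were treated with a range of compound concentrations for 4 h. MYC mRNA was measured by QuantiGene 2.0, and biological duplicates were averaged and normalized to DMSO vehicle to give percent MYC mRNA.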

[5] = test system: Myc RNA; experiment: Myc RNA quantification in xenograft model; format: in vivo, NOD SCID mice; conditions: for ED50: Mus musculus, Raji, po
Description: Female NOD SCID mice (Harlan) were inoculated s.c. with 3×10^6 Raji cells per mouse resuspended in 10% Matrigel. Tumors were grown until they reached a size of 200 mm^3 to 400 mm^3 as measured by caliper. Mice were treated orally (5 mL/kg) with different doses of compounds prepared as a 2 mg/mL suspension of Carboxy-methyl-cellulose. At the indicated time points after treatment, tumors were harvested. RNA was isolated by using TRIzol extraction and processed for QuantiGene® Assay.

[6] = test system: MYC mRNA; experiment: cMyc RNA quantification assay (QuantiGene) in MV4:11 cells; format: cell-based; conditions: read-out: MYC-MV411
Description: MV4:11 (AML) or Raji (Burkitt's lymphoma) cells were seeded in a 96-well plate and incubated in the presence of various concentrations of compounds for 4 h. Relative mRNA levels were quantitated by using QuantiGene 2.0 assay (Affymetrix) according to the manufacturer's recommendation. Signals were detected by using an Envision plate reader (Perkin-Elmer). Biological duplicates were averaged and normalized to vehicle (DMSO) control to calculate percent MYC mRNA levels.

[7] = Homo sapiens, THP-1, 16 h, Table 7, LPS 4 μg/mL, normalised to CellTiter-Glo
[8] = Table 6, BRD4(BD1) 30 nM, H4-tetraacetyl peptide 200 nM, read-out: BRD4 Alphascreen IC50
[9] = Homo sapiens, Table 7, Raji (Burkitt's lymphoma) cells
[10] = Table 7, LPS 4 μg/mL, normalised to CellTiter-Glo
[11] = Table 7, Raji (Burkitt's lymphoma) cells
[12] = Table 7, MV4:11 (AML) cells, 4 h
[13] = Homo sapiens, MV4-11, 4 h, Table 7, MV4:11 (AML) cells
[14] = Homo sapiens, THP-1, 16 h, Table 14, LPS
[15] = Table 14, BRD4 AlphaLisa Binding Assay, read-out: Alpha screen
[16] = Homo sapiens, Table 14, Raji cells
[17] = Homo sapiens, MV4-11, 4 h, Table 14, MV4:11 cells

IC50 [3, 8] | IC50 [4, 9] | IC50 [4, 11] | IC50 [6, 12] | Structure (SMILES) | IC50 [1, 7] | ED50 [2] | IC50 [1, 10] | ED50 [5] | also measured
< 500 nM | < 500 nM |  |  | CCNC(=O)C[C@@H]1N=C(c2ccc(Cl)cc2)c2c(sc(C)c2C)-c2c(C)noc21 [Compound 165, 2-((6S)-4-(4-chlorophenyl)-2,3,9-trimethyl-6H-isoxazolo[4,5-e]thieno[3,2-c]azepin-6-yl)-N-ethylacetamide] | < 500 nM | 10 to 50 mg/kg |  |  | 
 |  | < 500 nM | < 500 nM | Cc1noc2c1-c1ccccc1C(c1ccc(Cl)cc1)=N[C@H]2CC(N)=O [Compound 144] |  |  | < 500 nM |  | ED50 (mg/kg) ([5]; Table 16, Raji xenograft tumors, oral treatment, Myc RNA by QuantiGene, 50% inhibition compared to vehicle): ++ (“++” indicates an ED50 of less than 20 mg/kg); ED50 (mg/kg) [2]: ++ (“++” indicates an ED50 of less than 10 mg/kg)
< 500 nM | < 500 nM |  |  | Cc1noc2c1-c1sc(C)c(C)c1C(c1ccc(C#N)cc1)=NC2CC(=O)NCCF (stereo not shown) [Compound 114] | < 500 nM |  |  | 20 to 50 mg/kg | 
< 500 nM |  | < 500 nM | < 500 nM | Cc1noc2c1-c1ccccc1C(c1ccc(C#N)cc1)=N[C@H]2CC(N)=O [Compound 148] |  |  | < 500 nM |  | ED50 (mg/kg) [2]: + (“+” indicates and ED50 of between 10 and 50 mg/kg)
< 500 nM | < 500 nM |  |  | Cc1cccc2c1C(c1ccc(F)cc1)=NC(CC(N)=O)c1onc(C)c1-2 (stereo not shown) [Compound 129] | < 500 nM | < 10 mg/kg |  | 20 to 50 mg/kg | 

Further lines, the molecule ahead of its results:

Structure (SMILES) | IC50 [3, 8] | IC50 [4, 9] | IC50 [4, 11] | IC50 [6, 12] | IC50 [1, 7] | ED50 [2] | IC50 [1, 10] | ED50 [5] | also measured
Cc1cccc2c1C(c1ccc(C(F)(F)F)cc1)=NC(CC(N)=O)c1onc(C)c1-2 (stereo not shown) [Compound 132] | < 500 nM | < 500 nM |  |  | < 500 nM | < 10 mg/kg |  | < 20 mg/kg | IC50 [6, 13]: < 500 nM
Cc1noc2c1-c1sc(C)c(C)c1C(c1ccc(Cl)cc1)=N[C@H]2CC(N)=O [Compound 110, 2-((6S)-4-(4-chlorophenyl)-2,3,9-trimethyl-6H-isoxazolo[5,4-c]thieno[2,3-e]azepin-6-yl)acetamide] | < 500 nM | < 500 nM |  |  | < 500 nM | < 10 mg/kg |  | 20 to 50 mg/kg | IC50 [6, 13]: < 500 nM
Cc1cccc2c1C(c1ccc(Cl)cc1)=NC(CC(N)=O)c1onc(C)c1-2 (stereo not shown) [Compound 128] | < 500 nM |  | < 500 nM |  |  |  | < 500 nM |  | ED50 (mg/kg) [2]: ++ (“++” indicates an ED50 of less than 10 mg/kg)
Cc1noc2c1-c1sc(C)c(C)c1C(c1ccc(C(F)(F)F)cc1)=NC2CC(N)=O (stereo not shown) [Compound 208] |  |  |  |  |  |  |  |  | IC50 [1, 14]: < 500 nM; IC50 [3, 15]: < 500 nM; IC50 [4, 16]: < 500 nM; IC50 [6, 17]: < 500 nM
Cc1cccc2c1C(c1ccc(OC(F)(F)F)cc1)=N[C@@H](CC(N)=O)c1onc(C)c1-2 [Compound 136] | < 500 nM |  | < 500 nM | < 500 nM |  |  | < 500 nM |  | 
Cc1noc2c1-c1ccc(-c3ccc(N)nc3)cc1C(c1ccc(C(F)(F)F)cc1)=N[C@H]2CC(N)=O [Compound 206] |  |  |  |  |  |  |  |  | IC50 [1, 14]: < 500 nM; IC50 [3, 15]: < 500 nM; IC50 [4, 16]: < 500 nM; IC50 [6, 17]: < 500 nM
COCCNC(=O)C[C@@H]1N=C(c2ccc(Cl)cc2)c2ccccc2-c2c(C)noc21 [Compound 145] | < 500 nM |  | < 500 nM | < 500 nM |  |  | < 500 nM |  | 
